This passage reports IC50 results from patent US20090062294A1, “HETEROARYL-SUBSTITUTED UREA MODULATORS OF FATTY ACID AMIDE HYDROLASE” (priority 2007, published 2009).

Structures are written as SMILES.

For one assay, the target named is T1, FAAH (Homo sapiens, UniProt O00519).
T1 sequence (O00519 1-579): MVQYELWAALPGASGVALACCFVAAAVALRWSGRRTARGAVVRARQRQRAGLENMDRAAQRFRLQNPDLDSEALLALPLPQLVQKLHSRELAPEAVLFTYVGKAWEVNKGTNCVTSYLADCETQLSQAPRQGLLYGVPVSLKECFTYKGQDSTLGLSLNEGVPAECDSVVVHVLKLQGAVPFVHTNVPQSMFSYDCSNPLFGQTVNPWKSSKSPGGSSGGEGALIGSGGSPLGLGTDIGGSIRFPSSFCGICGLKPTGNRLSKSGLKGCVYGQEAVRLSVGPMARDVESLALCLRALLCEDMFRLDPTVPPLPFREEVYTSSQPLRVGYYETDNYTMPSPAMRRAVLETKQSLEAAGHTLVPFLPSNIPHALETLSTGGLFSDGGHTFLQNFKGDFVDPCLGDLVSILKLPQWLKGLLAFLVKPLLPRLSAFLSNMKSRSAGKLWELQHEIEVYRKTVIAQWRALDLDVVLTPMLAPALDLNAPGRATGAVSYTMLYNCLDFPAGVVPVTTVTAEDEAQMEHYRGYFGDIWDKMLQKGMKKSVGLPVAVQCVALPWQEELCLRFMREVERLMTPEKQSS
The assay is described as follows: Assay Method 1: FAAH assay, 3H-anandamide hydrolysis in homogenate of T84 cells or SK-N-MC cells transfected with human FAAH. The assay is classed as biochemical. As to conditions: average of results, > = solubility limit or highest concentration tested. The essentials: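 Hydrolysis of ^3H-anandamide (80 nM final, added last) was measured over 1 h at rt, using test compound with homogenate of T84 cells or human FAAH-transfected SK-N-MC cells. The homogenization buffer was 125 mM Tris, 1 mM EDTA, 0.02% Triton X-100, pH 9. Unbound labelled ethanolamine was passed through charcoal filters and scintillation-counted.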

A further assay deals with T2, rat FAAH (Rattus norvegicus, UniProt P97612).
T2 sequence (P97612 1-579): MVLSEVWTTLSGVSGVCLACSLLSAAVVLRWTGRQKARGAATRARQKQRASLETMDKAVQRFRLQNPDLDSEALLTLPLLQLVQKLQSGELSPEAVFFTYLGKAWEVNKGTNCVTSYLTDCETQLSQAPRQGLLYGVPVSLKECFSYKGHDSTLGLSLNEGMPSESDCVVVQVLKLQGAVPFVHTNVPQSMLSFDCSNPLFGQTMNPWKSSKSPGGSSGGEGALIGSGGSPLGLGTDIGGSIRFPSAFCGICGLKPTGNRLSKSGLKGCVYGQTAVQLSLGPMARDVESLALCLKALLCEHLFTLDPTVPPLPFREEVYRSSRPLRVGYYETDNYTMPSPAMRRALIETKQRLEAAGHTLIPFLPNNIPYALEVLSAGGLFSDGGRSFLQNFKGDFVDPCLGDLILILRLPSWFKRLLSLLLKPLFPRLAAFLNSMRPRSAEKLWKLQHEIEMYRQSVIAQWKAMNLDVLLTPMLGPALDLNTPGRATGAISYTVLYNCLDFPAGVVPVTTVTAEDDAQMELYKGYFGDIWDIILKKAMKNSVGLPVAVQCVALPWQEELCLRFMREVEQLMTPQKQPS
The assay can be described thus: Assay Method 2: FAAH assay, 3H-anandamide hydrolysis in homogenate of SK-N-MC cells transfected with rat FAAH. As to conditions: average of results, > = solubility limit or highest concentration tested. The assay is classed as biochemical. The essentials:
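Read-out is scintillation counting of [3H]-ethanolamine passing through activated charcoal, after 1 h at rt with 80 nM final [3H]-AEA. Enzyme source: lysate of G418-selected SK-N-MC clones expressing rat FAAH, homogenized in Tris/EDTA/glycerol/0.02% Triton buffer, pH 9.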

Turning to `O=C(Nc1cnccn1)N1CCN(Cc2ccc3ccccc3c2)CC1` [Example 213, 4-(Naphthalen-2-ylmethyl)-N-pyrazin-2-ylpiperazine-1-carboxamide], the values for the IC50 at FAAH and on rat FAAH were 100 nM and 320 nM, respectively.
On to `O=C(Nc1cnccn1)N1CCN(Cc2cccc(Oc3ccc(OCC(F)(F)F)cc3)c2)CC1` [Example 214, N-Pyrazin-2-yl-4-{3-[4-(2,2,2-trifluoroethoxy)phenoxy]benzyl}-piperazine-1-carboxamide], for which the IC50 (as a rule, the midpoint of a concentration-inhibition curve) on FAAH is 15 nM; against rat FAAH, 90 nM.
Turning to `O=C(Nc1cnccn1)N1CCN(Cc2cccc(Oc3ccc(C(F)(F)F)cc3)c2)CC1` [Example 215, N-Pyrazin-2-yl-4-{3-[4-(trifluoromethyl)phenoxy]benzyl}piperazine-1-carboxamide], the IC50 against FAAH amounted to 1 nM; against rat FAAH, 30 nM.
With `O=C(Nc1cnccn1)N1CCN(Cc2ccc3[nH]ccc3c2)CC1` [Example 216, 4-(1H-Indol-5-ylmethyl)-N-pyrazin-2-ylpiperazine-1-carboxamide], the concentration for half-maximal inhibition (IC50) against FAAH and against rat FAAH was more than 10000 nM each time.
In the case of `O=C(Nc1cnccn1)N1CCN(Cc2ccc(Br)c(Br)c2)CC1` [Example 217, 4-(3,4-Dibromobenzyl)-N-pyrazin-2-ylpiperazine-1-carboxamide], the IC50 on FAAH worked out at 150 nM; against rat FAAH, 250 nM.
On to `O=C(Nc1cnccn1)N1CCN(Cc2cc3ccccc3s2)CC1` [Example 218, 4-(1-Benzothiophen-2-ylmethyl)-N-pyrazin-2-ylpiperazine-1-carboxamide], for which the values for the IC50 on FAAH and at rat FAAH were 170 nM and 700 nM, respectively.
Take `O=C(Nc1cnccn1)N1CCN(Cc2ccc(Cl)c(Cl)c2)CC1` [Example 220, 4-(3,4-Dichlorobenzyl)-N-pyrazin-2-ylpiperazine-1-carboxamide]: the IC50 is 320 nM on FAAH and 430 nM on rat FAAH.
Consider `O=C(Nc1cnccn1)N1CCN(Cc2cccc(Oc3ccc(Br)cc3)c2)CC1` [Example 221, 4-[3-(4-Bromophenoxy)benzyl]-N-pyrazin-2-ylpiperazine-1-carboxamide], for which the figures for the IC50 against FAAH and on rat FAAH were 3 nM and 50 nM, respectively.
Consider `O=C(Nc1cnccn1)N1CCN(Cc2ccc(Br)c(F)c2)CC1` [Example 222, 4-(4-Bromo-3-fluorobenzyl)-N-pyrazin-2-ylpiperazine-1-carboxamide], for which the concentration for half-maximal inhibition (IC50) at FAAH came to 700 nM; on rat FAAH, 600 nM.
Taken in the same sequence, the figures for `O=C(Nc1cnccn1)N1CCN(Cc2cnc3ccccc3c2)CC1` [Example 224, N-Pyrazin-2-yl-4-(quinolin-3-ylmethyl)piperazine-1-carboxamide] were 4000 nM and more than 10000 nM.
For the compound `O=C(Nc1cnccn1)N1CCN(Cc2cccc(Oc3cccc(Cl)c3)c2)CC1` [Example 225, 4-[3-(3-Chlorophenoxy)benzyl]-N-pyrazin-2-ylpiperazine-1-carboxamide], the IC50 against FAAH stood at 43 nM; against rat FAAH, 535 nM.
Regarding `O=C(Nc1cnccn1)N1CCN(Cc2cccc(Oc3ccc(S(=O)(=O)C(F)(F)F)cc3)c2)CC1` [Example 226, N-Pyrazin-2-yl-4-(3-{4-[(trifluoromethyl)sulfonyl]phenoxy}benzyl)-piperazine-1-carboxamide], the IC50 at FAAH was found to be 6 nM; at rat FAAH it was 40 nM.
Taken in the same sequence, the figures for `O=C(Nc1cnccn1)N1CCN(Cc2cccc(Oc3ccccc3)c2)CC1` [Example 227, 4-(3-Phenoxy-benzyl)-piperazine-1-carboxylic acid pyrazin-2-ylamide] were 400 nM and 5300 nM.
Turning to `O=C(Nc1cnccn1)N1CCN(Cc2cccc(Oc3ccc4ccccc4c3)c2)CC1` [Example 228, 4-[3-(Naphthalen-2-yloxy)-benzyl]-piperazine-1-carboxylic acid pyrazin-2-ylamide], the IC50 was 30 nM on FAAH and 80 nM against rat FAAH.
On to `N#Cc1ccc(Oc2cccc(CN3CCN(C(=O)Nc4cnccn4)CC3)c2)cc1` [Example 229, 4-[3-(4-Cyano-phenoxy)-benzyl]-piperazine-1-carboxylic acid pyrazin-2-ylamide], for which the IC50 against FAAH is 200 nM; on rat FAAH it was 3000 nM.
